The structures appear in SMILES notation.

14 compounds from patent US20230373985A1 (Origenis Gmbh, priority 2020, published 2023) can be followed below.

The target in assay [1] is T1, wt human JAK1, catalytic site (Homo sapiens, UniProt P23458).
T1 construct: wt human JAK1, catalytic site; purchased ThermoFisher
Nature of the assay: HTRF KinEASE assay, JAK1. It is filed as biochemical. The conditions noted are these: 2.5 μM ATP; read-out: IC50, Activity Toward JAK1. A digest of the protocol:
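Two-step HTRF KinEASE assay: compound, kinase/biotinylated TK substrate and ATP were incubated at least 30 min at room temperature. Antibody plus streptavidin-XL665 was then added and plates were read after 60 min. Inhibition was derived from emission ratios according to the kit protocol.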
(In general: Time-resolved FRET reads energy transfer from a long-lived donor to a nearby acceptor.)

Assay [2] deals with T2, wt human TYK2, catalytic site (Homo sapiens, UniProt P29597).
T2 construct: wt human TYK2, catalytic site; purchased SignalChem
T2 sequence (P29597 897-1176 limits assumed): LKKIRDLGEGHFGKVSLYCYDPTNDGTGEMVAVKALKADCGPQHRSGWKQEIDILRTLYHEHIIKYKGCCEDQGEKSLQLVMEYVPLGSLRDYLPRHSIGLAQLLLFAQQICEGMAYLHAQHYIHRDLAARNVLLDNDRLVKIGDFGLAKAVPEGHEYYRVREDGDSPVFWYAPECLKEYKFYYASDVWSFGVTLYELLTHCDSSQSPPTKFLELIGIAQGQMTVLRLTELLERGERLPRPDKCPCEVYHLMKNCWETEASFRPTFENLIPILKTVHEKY
The assay can be described thus: HTRF KinEASE assay, TYK2. In kind it is biochemical. The conditions noted are these: 1 μM ATP; read-out: IC50, Activity Toward TYK2. The method in brief:
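HTRF KinEASE-TK readout with 1 μM biotinylated TK substrate in 1× kinase buffer, ≥30 min at room temperature, then antibody/streptavidin-XL665 detection for 60 min. TYK2 at 2 nM with 1 μM ATP; JAK2 at 1 nM with 100 μM ATP. Analysis uses emission ratios.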

Assay [3] addresses T3, wt human JAK2, catalytic site (Homo sapiens, UniProt O60674).
T3 construct: wt human JAK2, catalytic site; purchased SignalChem
The assay can be described thus: HTRF KinEASE assay, JAK2. In kind it is biochemical. The conditions noted are these: assay format not given (Z'-LYTE or HTRF KinEASE); read-out: IC50, Activity Toward JAK2. The protocol: Basic protocol for HTRF KinEASE assay (Cisbio/FRA) inhibitor studies involved two steps: • Enzymatic step: Addition of 4 μL of test compound in corresponding DMSO dilutions, 4 μL of kinase/substrate mixture, 2 μL of ATP into 384 well small volume plates. Incubation for at least 30 minutes at room temperature. • Detection step: Addition of 5 μL antibody and 5 μL streptavidin-XL665, read plate after 60 minutes. Data analysis of emission ratios according KinEASE assay protocol.
(§1) Kinase and assay components were adjusted to final concentrations according to kit protocol. For TYK2: 2 nM wt human TYK2, catalytic site (SignalChem/CAN), 1 μM HTRF KinEASE-TK Substrate-biotin, 1 μM ATP in 1× Kinase Buffer. For JAK1: 4 nM wt human JAK1, catalytic site (ThermoFisher/USA), 1 μM HTRF KinEASE-TK Substrate-biotin, 2.5 μM ATP in 1× Kinase Buffer. For JAK2: 1 nM wt human JAK2, catalytic site (SignalChem/CAN), 1 μM HTRF KinEASE-TK Substrate-biotin, 100 μM ATP in 1× Kinase Buffer.
as §1

The target in assay [4] is T4, wt human LRRK2, catalytic site (Homo sapiens, UniProt Q5S007).
T4 construct: 5 nM wt human LRRK2, catalytic site; purchased ThermoFisher
The assay can be described thus: TR-FRET LanthaScreen Eu Kinase Binding Assay, LRRK2 wt. As to conditions: one range stated for wt and G2019, read-out: IC50, Activity Toward LRRK2(Wt). A digest of the protocol: (§2)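 Competitive tracer-displacement TR-FRET, 1 h at room temperature, read as emission ratio. LRRK2 (wt or G2019S catalytic domain) at 5 nM with 2 nM Eu-anti-GST and 10 nM Tracer 236; full-length NUAK1 at 8 nM with 2 nM Eu-anti-His and 5 nM Tracer 236, all final in Kinase Buffer A.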

The target in assay [5] is T5, G2019S human LRRK2, catalytic site (Homo sapiens, UniProt Q5S007, G2019S).
T5 construct: G2019S human LRRK2, catalytic site; purchased ThermoFisher
Nature of the assay: TR-FRET LanthaScreen Eu Kinase Binding Assay, LRRK2 G2019S. As to conditions: LRRK2(G2019); one range stated for wt and G2019; read-out: IC50, Activity Toward LRRK2(G2019). A digest of the protocol: as §2

For assay [6], the target named is T6, wt human NUAK1, full length (Homo sapiens, UniProt O60285).
T6 construct: 8 nM wt human NUAK1, full length (ThermoFisher/USA); purchased ThermoFisher
T6 sequence (O60285 1-661): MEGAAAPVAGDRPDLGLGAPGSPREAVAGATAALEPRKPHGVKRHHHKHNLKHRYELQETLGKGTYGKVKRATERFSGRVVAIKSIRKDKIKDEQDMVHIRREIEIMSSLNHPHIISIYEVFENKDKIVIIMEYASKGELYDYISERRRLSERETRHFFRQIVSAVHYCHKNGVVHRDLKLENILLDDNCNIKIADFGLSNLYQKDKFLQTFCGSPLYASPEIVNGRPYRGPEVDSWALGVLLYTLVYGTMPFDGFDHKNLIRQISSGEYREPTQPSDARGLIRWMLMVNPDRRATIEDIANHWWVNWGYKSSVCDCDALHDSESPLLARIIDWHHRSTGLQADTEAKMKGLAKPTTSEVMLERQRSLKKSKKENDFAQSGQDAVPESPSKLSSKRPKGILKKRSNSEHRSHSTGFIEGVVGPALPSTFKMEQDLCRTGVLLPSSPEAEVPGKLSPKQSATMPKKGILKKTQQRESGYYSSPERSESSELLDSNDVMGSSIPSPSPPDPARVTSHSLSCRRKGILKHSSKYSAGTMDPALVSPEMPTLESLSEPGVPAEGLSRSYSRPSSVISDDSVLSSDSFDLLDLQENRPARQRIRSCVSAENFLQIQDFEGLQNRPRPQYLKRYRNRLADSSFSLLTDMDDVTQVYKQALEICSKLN
The assay can be described thus: TR-FRET LanthaScreen Eu Kinase Binding Assay, NUAK1. As to conditions: read-out: IC50, Activity Toward NUAK1. The method in brief:
as §2

T3 sequence (O60674 849-1124 limits assumed): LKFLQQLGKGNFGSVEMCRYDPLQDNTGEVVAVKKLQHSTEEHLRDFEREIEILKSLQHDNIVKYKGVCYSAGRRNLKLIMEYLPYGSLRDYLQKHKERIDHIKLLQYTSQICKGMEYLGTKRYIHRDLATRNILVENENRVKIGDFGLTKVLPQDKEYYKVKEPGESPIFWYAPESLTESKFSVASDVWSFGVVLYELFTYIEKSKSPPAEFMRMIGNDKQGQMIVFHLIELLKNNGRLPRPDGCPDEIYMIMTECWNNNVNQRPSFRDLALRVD
T1 sequence (P23458 875-1153 limits assumed): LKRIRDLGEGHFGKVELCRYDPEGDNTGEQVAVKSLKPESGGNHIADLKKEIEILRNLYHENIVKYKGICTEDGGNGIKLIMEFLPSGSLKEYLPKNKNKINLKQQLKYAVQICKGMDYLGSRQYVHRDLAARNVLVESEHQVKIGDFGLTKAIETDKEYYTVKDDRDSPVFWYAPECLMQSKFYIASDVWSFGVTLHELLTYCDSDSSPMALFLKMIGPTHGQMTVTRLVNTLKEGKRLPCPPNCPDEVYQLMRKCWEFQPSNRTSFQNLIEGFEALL
T4 sequence (Q5S007 970-2527 limits assumed): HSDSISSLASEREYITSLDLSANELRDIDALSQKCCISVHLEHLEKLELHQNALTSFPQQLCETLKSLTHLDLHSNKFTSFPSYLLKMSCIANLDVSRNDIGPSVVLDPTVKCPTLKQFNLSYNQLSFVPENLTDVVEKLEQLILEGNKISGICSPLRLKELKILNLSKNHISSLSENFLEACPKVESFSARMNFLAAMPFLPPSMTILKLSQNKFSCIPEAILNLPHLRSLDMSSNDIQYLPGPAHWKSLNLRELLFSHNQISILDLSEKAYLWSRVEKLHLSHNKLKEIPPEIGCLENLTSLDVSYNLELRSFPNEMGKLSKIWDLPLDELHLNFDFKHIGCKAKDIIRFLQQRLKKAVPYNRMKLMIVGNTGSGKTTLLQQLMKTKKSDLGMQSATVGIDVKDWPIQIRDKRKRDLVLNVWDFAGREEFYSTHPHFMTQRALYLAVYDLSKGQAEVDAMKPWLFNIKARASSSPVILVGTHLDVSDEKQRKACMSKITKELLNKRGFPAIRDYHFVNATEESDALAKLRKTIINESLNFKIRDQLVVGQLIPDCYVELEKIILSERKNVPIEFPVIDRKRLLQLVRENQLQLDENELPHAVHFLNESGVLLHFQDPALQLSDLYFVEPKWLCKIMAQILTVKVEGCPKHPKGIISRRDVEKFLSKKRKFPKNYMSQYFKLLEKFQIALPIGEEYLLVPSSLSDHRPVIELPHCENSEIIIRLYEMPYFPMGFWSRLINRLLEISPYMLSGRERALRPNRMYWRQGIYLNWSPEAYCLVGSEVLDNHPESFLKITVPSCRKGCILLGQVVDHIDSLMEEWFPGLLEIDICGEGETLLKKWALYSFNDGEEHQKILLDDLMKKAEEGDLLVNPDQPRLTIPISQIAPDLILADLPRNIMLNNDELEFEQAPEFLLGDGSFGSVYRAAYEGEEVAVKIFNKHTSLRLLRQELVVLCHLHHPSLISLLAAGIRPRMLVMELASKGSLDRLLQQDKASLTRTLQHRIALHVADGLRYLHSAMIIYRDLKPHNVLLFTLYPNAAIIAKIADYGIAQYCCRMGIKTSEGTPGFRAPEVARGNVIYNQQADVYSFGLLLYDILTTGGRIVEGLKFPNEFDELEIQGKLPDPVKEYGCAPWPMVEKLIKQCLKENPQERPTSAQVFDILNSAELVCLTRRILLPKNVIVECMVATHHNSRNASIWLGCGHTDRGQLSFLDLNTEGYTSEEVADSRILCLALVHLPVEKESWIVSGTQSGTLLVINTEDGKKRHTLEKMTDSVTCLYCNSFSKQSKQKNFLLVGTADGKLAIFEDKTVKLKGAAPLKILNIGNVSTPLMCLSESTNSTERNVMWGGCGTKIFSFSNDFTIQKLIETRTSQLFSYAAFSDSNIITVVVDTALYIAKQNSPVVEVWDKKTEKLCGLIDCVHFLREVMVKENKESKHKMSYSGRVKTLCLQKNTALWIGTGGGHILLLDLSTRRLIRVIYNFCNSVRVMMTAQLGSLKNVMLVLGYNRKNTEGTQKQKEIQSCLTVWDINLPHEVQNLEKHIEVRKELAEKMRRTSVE
T5 sequence (Q5S007 970-2527 G2019S limits assumed): as the sequence (Q5S007 970-2527 limits assumed) above, with G1050S counted along it

Consider `NC(=O)c1nn(-c2c(Cl)cccc2Cl)cc1Nc1ccc(C(=O)N2CCCC2)cc1` [compound 94, 1-(2,6-dichlorophenyl)-4-((4-(pyrrolidine-1-carbonyl)phenyl)amino)-1H-pyrazole-3-carboxamide], for which the IC50 (as a rule, the point on the concentration scale where inhibition reaches its midpoint) was 10 to 100 nM in assay [1], 10 to 100 nM in assay [2] and 100 to 1000 nM in assay [3].
Regarding `COCCCNC(=O)c1ccc(Nc2nn(-c3c(Cl)cccc3Cl)nc2C(N)=O)cc1` [compound 119, 2-(2,6-dichlorophenyl)-5-((4-((3-methoxypropyl)carbamoyl)phenyl)amino)-2H-1,2,3-triazole-4-carboxamide], the half-maximal inhibitory concentration (IC50) fell in the range of 10 to 100 nM in assay [1], 10 to 100 nM in assay [2] and 100 to 1000 nM in assay [3].
Regarding `NC(=O)c1nn(-c2c(Cl)cccc2Cl)nc1Nc1ccc(OC2CCNCC2)cc1` [Compound No. 120, 2-(2,6-dichlorophenyl)-5-((4-(piperidin-4-yloxy)phenyl)amino)-2H-1,2,3-triazole-4-carboxamide], the IC50 was in the range of 10 to 100 nM in assay [1], 10 to 100 nM in assay [2] and 100 to 1000 nM in assay [3].
With `Cn1cc(C(F)(F)F)nc1-c1ccc(Nc2cn(-c3c(F)cccc3F)nc2C(N)=O)cc1` [compound 308, 1-(2,6-difluorophenyl)-4-((4-(1-methyl-4-(trifluoromethyl)-1H-imidazol-2-yl)phenyl)amino)-1H-pyrazole-3-carboxamide], the IC50 fell in the range of 100 to 1000 nM in assay [4]; 10 to 100 nM in assay [1]; 10 to 100 nM in assay [2]; 100 to 1000 nM in assay [5]; 100 to 1000 nM in assay [6].
With `NC(=O)c1nn(-c2c(F)cccc2F)cc1Nc1ccc(C(=O)NCC(F)(F)F)cc1` [compound 14, 1-(2,6-difluorophenyl)-4-((4-((2,2,2-trifluoroethyl)carbamoyl)phenyl)amino)-1H-pyrazole-3-carboxamide], the IC50 in assay [4] was in the range of 100 to 1000 nM; in assay [1], 100 to 1000 nM; in assay [2], 10 to 100 nM; in assay [5], 100 to 1000 nM; in assay [6], 10 to 100 nM.
Take `CN(C)C1CCN(C(=O)c2ccc(Nc3cn(-c4c(Cl)cccc4Cl)nc3C(N)=O)cc2)CC1` [compound 423, 1-(2,6-dichlorophenyl)-4-((4-(4-(dimethylamino)piperidine-1-carbonyl)phenyl)amino)-1H-pyrazole-3-carboxamide]: the IC50 in assay [4] lay in the range of 100 to 1000 nM; in assay [1] it was 10 to 100 nM; in assay [2] it was 10 to 100 nM; in assay [5] it was 100 to 1000 nM; in assay [6], 100 to 1000 nM.
As for `CN1CCC(Oc2ccc(Nc3cn(-c4c(F)cccc4Cl)nc3C(N)=O)cc2)CC1` [compound 295, 1-(2-chloro-6-fluorophenyl)-4-((4-((1-methylpiperidin-4-yl)oxy)phenyl)amino)-1H-pyrazole-3-carboxamide], the IC50 in assay [4] was 100 to 1000 nM; in assay [1], 10 to 100 nM; in assay [2] it was 10 to 100 nM; in assay [5], 100 to 1000 nM; in assay [6] it was 10 to 100 nM.
Consider `NC(=O)c1nn(-c2c(Cl)cccc2Cl)cc1Nc1ccc(C(=O)N2CCN(CC3CC3)CC2)cc1` [compound 86, 4-((4-(4-(cyclopropylmethyl)piperazine-1-carbonyl)phenyl)amino)-1-(2,6-dichlorophenyl)-1H-pyrazole-3-carboxamide], for which the IC50 in assay [4] is 100 to 1000 nM; in assay [1], 10 to 100 nM; in assay [2], less than 10 nM; in assay [5], 100 to 1000 nM; in assay [6], 100 to 1000 nM.
For `CN1CCC(Oc2ccc(Nc3cn(-c4c(F)cccc4F)nc3C(N)=O)cc2)CC1` [compound 288, 1-(2,6-difluorophenyl)-4-((4-((1-methylpiperidin-4-yl)oxy)phenyl)amino)-1H-pyrazole-3-carboxamide], the IC50 fell in the range of 100 to 1000 nM in assay [4]; 100 to 1000 nM in assay [1]; 10 to 100 nM in assay [2]; 100 to 1000 nM in assay [5]; 10 to 100 nM in assay [6].
Consider `CCN(CC)CCNC(=O)c1ccc(Nc2cn(-c3c(Cl)cccc3Cl)nc2C(N)=O)cc1` [compound 422, 1-(2,6-dichlorophenyl)-4-((4-((2-(diethylamino)ethyl)carbamoyl)phenyl)amino)-1H-pyrazole-3-carboxamide], for which the concentration for half-maximal inhibition (IC50) in assay [4] is 100 to 1000 nM; in assay [1], 10 to 100 nM; in assay [2], 10 to 100 nM; in assay [5], 100 to 1000 nM; in assay [6], 100 to 1000 nM.
Consider `Cc1cc(Nc2cn(-c3c(F)cccc3F)nc2C(N)=O)nc(N)n1` [compound 8, 4-((2-amino-6-methylpyrimidin-4-yl)amino)-1-(2,6-difluorophenyl)-1H-pyrazole-3-carboxamide], for which the IC50 in assay [4] lay within 100 to 1000 nM; in assay [1], 100 to 1000 nM; in assay [2], 100 to 1000 nM; in assay [5], 100 to 1000 nM; in assay [6], 10 to 100 nM.
Consider `CC(C)(C)NC(=O)c1ccc(Nc2cn(-c3c(F)cccc3Cl)nc2C(N)=O)cc1` [compound 27, 4-((4-(tert-butylcarbamoyl)phenyl)amino)-1-(2-chloro-6-fluorophenyl)-1H-pyrazole-3-carboxamide], for which the IC50 was in the range of 100 to 1000 nM in assay [4]; 100 to 1000 nM in assay [1]; 10 to 100 nM in assay [2]; 100 to 1000 nM in assay [5]; 100 to 1000 nM in assay [6].
Take `Cn1nncc1-c1ccc(Nc2cn(-c3c(Cl)cccc3Cl)nc2C(N)=O)cc1` [compound 48, 1-(2,6-dichlorophenyl)-4-((4-(1-methyl-1H-1,2,3-triazol-5-yl)phenyl)amino)-1H-pyrazole-3-carboxamide]: the IC50 in assay [4] fell in the range of 100 to 1000 nM; in assay [1], 100 to 1000 nM; in assay [2], 10 to 100 nM; in assay [5], 100 to 1000 nM; in assay [6] it was 100 to 1000 nM.
Regarding `Cn1cc(Nc2cn(-c3c(F)cccc3Cl)nc2C(N)=O)cn1` [compound 359, 1-(2-chloro-6-fluorophenyl)-4-((1-methyl-1H-pyrazol-4-yl)amino)-1H-pyrazole-3-carboxamide], the IC50 in assay [4] lay in the range of 100 to 1000 nM; in assay [1] it was 10 to 100 nM; in assay [2], 10 to 100 nM; in assay [5] it was 100 to 1000 nM; in assay [6], 100 to 1000 nM.
